According to patent US20250275964A1, “METHODS OF INHIBITING LIVER-TYPE GLUTAMINASE, GLS2” (CORNELL UNIVERSITY, priority 2019, published 2025):

Experiments:
HCC38 cells = assay: 6-day cell proliferation assay, HCC38; type: cell-based, human; settings: Homo sapiens, 144 h; HCC38, proliferation over 6 days
Description: (§1) Human breast cancer cell lines MCF7, BT-474, T-47D, MDA-MB-453, MDA-MB-231, Hs 578T, HCC38, SK-BR-3, and DU4475 were purchased from the American Type Culture Collection (ATCC) and no additional cell authentication was performed. The TSE human breast cancer cell line was supplied by Dr. Steven Abcouwer (University of Michigan). All breast cancer cells were cultured at 37° C. under a 5% CO2 atmosphere in RPMI 1640 medium containing 2 mM glutamine (Gibco) and supplemented with 10% fetal bovine serum (FBS) (Gibco). The 293T cell line (ATCC) used for generating lentivirus particles was cultured as above but using DMEM, high glucose (Gibco).
(§2) Culture medium was added to 12-well plates (1 ml/well) and wells were seeded with cells at Day 0 as follows. MCF7, T-47D, BT-474, HCC38 cells: […] cells/well. MDA-MB-453 and MDA-MB-231 cells: 1×10^4 cells/well. TSE and Hs 578T cells: 0.3×10^4 cells/well. After 16 hours, culture medium was replaced with fresh medium supplemented with appropriate concentrations of inhibitors and was subsequently replaced every 48 hours. On Day 6 cells were trypsinized and suspended in an appropriate volume of culture medium, and the total number of cells per well was determined using a hemocytometer or a TC20 Automated Cell Counter (Bio-Rad).

T-47D cells = assay: 6-day cell proliferation assay, T-47D; type: cell-based, human; settings: Homo sapiens, T47D, 144 h, proliferation over 6 days
Description: as §1, §2

MCF7 cells = assay: 6-day cell proliferation assay, MCF7; type: cell-based, human; settings: Homo sapiens, 144 h; MCF7, proliferation over 6 days
Description: as §1, §2

BT-474 cells = assay: 6-day cell proliferation assay, BT-474; type: cell-based, human; settings: Homo sapiens, 144 h; BT-474, proliferation over 6 days
Description: as §1, §2

MDA-MB-231 cells = assay: 6-day cell proliferation assay, MDA-MB-231; type: cell-based, human; settings: Homo sapiens, 144 h; MDA-MB-231, proliferation over 6 days
Description: as §1, §2

TSE cells = assay: 6-day cell proliferation assay, TSE; type: cell-based, human; settings: Homo sapiens, 144 h; TSE, proliferation over 6 days
Description: as §1, §2

MDA-MB-453 cells = assay: 6-day cell proliferation assay, MDA-MB-453; type: cell-based, human; settings: Homo sapiens, 144 h; MDA-MB-453, proliferation over 6 days
Description: as §1, §2

[1] = target: T1, recombinant full-length human GLS2 (Homo sapiens, UniProt Q9UI32); assay: Real-time recombinant glutaminase activity assay, GLS2; type: biochemical; settings: different concentrations
T1 construct: GLS2 (residues 38 to 602) in E. coli; inferred from pQE80 vector and Ni-NTA/imidazole purification; made in house; host or cells: E. coli BL21(DE3)
T1 sequence (Q9UI32 38-602): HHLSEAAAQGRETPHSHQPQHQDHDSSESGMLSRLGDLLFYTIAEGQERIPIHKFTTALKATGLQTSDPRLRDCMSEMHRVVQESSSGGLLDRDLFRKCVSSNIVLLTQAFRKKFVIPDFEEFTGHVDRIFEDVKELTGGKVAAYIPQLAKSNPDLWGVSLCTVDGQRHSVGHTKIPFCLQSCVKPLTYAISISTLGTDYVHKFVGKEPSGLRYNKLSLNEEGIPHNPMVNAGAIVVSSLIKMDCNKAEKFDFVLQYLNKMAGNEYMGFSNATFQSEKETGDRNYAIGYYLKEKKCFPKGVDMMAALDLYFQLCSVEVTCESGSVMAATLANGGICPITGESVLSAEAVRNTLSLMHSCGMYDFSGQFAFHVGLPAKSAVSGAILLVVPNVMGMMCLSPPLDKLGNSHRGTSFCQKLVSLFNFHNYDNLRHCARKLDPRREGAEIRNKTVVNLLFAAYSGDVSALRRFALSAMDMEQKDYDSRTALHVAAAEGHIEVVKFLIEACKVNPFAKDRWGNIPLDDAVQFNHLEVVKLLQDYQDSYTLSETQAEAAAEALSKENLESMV
Description: Real-time monitoring of glutaminase activity through NADH production was performed on a Cary Eclipse fluorescence spectrometer. The excitation and emission wavelengths were set at 340 nm and 460 nm, respectively. To a 1 ml cuvette, 900 μl of assay buffer was added, followed by 10 μl of GDH, 40 μl of 50 mM NAD and 20 μl of either DMSO or various dilutions of 968. Then, 100 μl of either 100 nM GAC or 500 nM GLS2 was added to this mixture and the fluorescence emission was monitored in real time. After 30 s, 200 μl of a mixture of glutamine and K2HPO4 was added such that the final concentrations of K2HPO4 and glutamine were 100 mM and 20 mM, respectively. The initial velocity of glutamine hydrolysis was obtained from the slopes of the linear portion of the kinetic curve.
Recombinant GAC and GLS2 were expressed in E. coli as described in Huang et al., “Characterization of the Interactions of Potent Allosteric Inhibitors with Glutaminase C, a Key Enzyme in Cancer Cell Glutamine Metabolism,” J. Biol. Chem. 293:3535-3545 (2018), which is hereby incorporated by reference in its entirety. Briefly, E. coli strain BL21(DE3) (Thermo Fisher Scientific) were transformed with vector pQE80-GAC-72-598 or with pQE80-GLS2-38-602 to express the processed forms of GAC and GLS2, respectively. For both constructs, expression was induced with 0.3 mM IPTG for 20 hours at 18° C., and cells were then harvested by centrifugation and lysed by sonication in binding buffer (500 mM NaCl, 50 mM Tris-HCl pH 8.5, 10 mM imidazole, 5 mM β-mercaptoethanol, 1 mM benzamidine chloride). The lysate was centrifuged, and the supernatant applied to a Ni-NTA column which was then washed with 100 column volumes of binding buffer followed by 10 volumes of wash buffer (500 mM NaCl, 50 mM Tris-HCl pH 8.5, 40 mM imidazole, 5 mM β-mercaptoethanol, 1 mM benzamidine chloride). Protein was eluted with 5 column volumes of elution buffer (500 mM NaCl, 300 mM imidazole-HCl pH 7.5, 5 mM β-mercaptoethanol, 1 mM benzamidine chloride). The eluate was centrifugally concentrated and then further purified by FPLC using a HiLoad 16/600 Superdex 200 column (GE Healthcare) with 150 mM NaCl, 5 mM Tris-HCl pH 7.5.

Hs 578T cells = assay: 6-day cell proliferation assay, Hs 578T; type: cell-based, human; settings: Homo sapiens, 144 h, proliferation over 6 days
Description: as §1, §2

breast cancer cell lines = settings: previously reported (Huang et al. 2018); cited from earlier work
[2] = test system: GLS2 protein levels in TSE cells; assay: Western blot of GLS2 in TSE cells treated with hypomethylating agent; type: cell-based, human; settings: 48 hours
Description: Cells, or fractionated mitochondria and nuclei, were lysed with ice-cold lysis buffer (50 mM HEPES pH 8.0, 150 mM NaCl, 25 mM NaF, 1% (v/v) Triton X-100, 1 mM MgCl2, 50 mM β-glycerophosphate, 30 μg/ml leupeptin, 5 μg/ml aprotinin), and insoluble debris cleared by centrifugation at 4° C. Protein concentrations were determined by Bradford assay (Bio-Rad), and lysate was then boiled for 10 min in reducing SDS-sample buffer. Lysate proteins (20 μg total protein/lane, except for the cell fractionation experiment in which 5 μg total protein/lane was used) were then resolved on Novex 12% Tris-Glycine Mini Gels (Thermo Fisher Scientific) and transferred to PVDF membrane (PerkinElmer). Membranes were blocked in 7% BSA in Tris-Buffered Saline plus 0.05% TWEEN 20 (TBST) for 1 hour at room temperature and probed overnight at 4° C. in primary antibody solution in TBST (see Table 3 for antibody dilutions). They were then washed with TBST and incubated in TBST containing 25% (v/v) non-fat dry milk powder and anti-Rabbit or anti-Mouse secondary antibody (1:2500) for 1 hour. Finally, membranes were washed in TBST, and imaged using Western Lightning Plus-ECL (PerkinElmer) and HyBlot ES autoradiography film (Denville Scientific Inc.).

Question: For `O=C(Cc1cccc(OC(F)(F)F)c1)Nc1ccc(CCCCc2nnc(NC(=O)Cc3ccccn3)s2)nn1` [CB-839], which EC50 (HCC38 cells) is on record?
Answer: Its EC50 is 0.049 µM.

Question: What about the EC50 (T-47D cells) of the same compound?
Answer: The EC50 was > 1 µM.

Question: And the EC50 (MCF7 cells)?
Answer: The EC50 was > 1 µM.

Question: What about the EC50 (BT-474 cells) of the same compound?
Answer: Its EC50 is > 1 µM.

Question: And the EC50 (MDA-MB-231 cells)?
Answer: The EC50 was 0.019 µM.

Question: What about the EC50 (TSE cells) of the same compound?
Answer: The EC50 was 0.041 µM.

Question: And the EC50 (MDA-MB-453 cells)?
Answer: The EC50 was > 1 µM.

Question: And the “inhibition of recombinant GLS2 activity” value [1]?
Answer: Its value is “resistance”.

Question: And the EC50 (Hs 578T cells)?
Answer: The EC50 was 0.031 µM.

Question: With `O=C(Cc1ccccc1)Nc1nnc(NC2CCN(c3nnc(NC(=O)Cc4ccccc4)s3)CC2)s1` [UPGL00004] as the compound, how does the “selectivity profile, basal- versus luminal-subtype cells” value (breast cancer cell lines) read?
Answer: Its value is “same selectivity profile”.

Question: For `Nc1ncn([C@@H]2O[C@H](CO)[C@@H](O)[C@H]2O)c(=O)n1` [azacitidine], which GLS2 protein levels [2] is on record?
Answer: The GLS2 protein levels was “increased”.
